In assay [1] the target is T1, h5-LOX (Homo sapiens, UniProt P09917, C241A/C562A/D45S/DEL41-43/F15H/K654E/K655N/K656L/L77S/N44G/W14E/W76G).
T1 sequence (P09917 with tags, fused parts or gaps W14E/F15H/DEL41-43/N44G/D45S/W76G/L77S/C241A/C562A/K654E/K655N/K656L): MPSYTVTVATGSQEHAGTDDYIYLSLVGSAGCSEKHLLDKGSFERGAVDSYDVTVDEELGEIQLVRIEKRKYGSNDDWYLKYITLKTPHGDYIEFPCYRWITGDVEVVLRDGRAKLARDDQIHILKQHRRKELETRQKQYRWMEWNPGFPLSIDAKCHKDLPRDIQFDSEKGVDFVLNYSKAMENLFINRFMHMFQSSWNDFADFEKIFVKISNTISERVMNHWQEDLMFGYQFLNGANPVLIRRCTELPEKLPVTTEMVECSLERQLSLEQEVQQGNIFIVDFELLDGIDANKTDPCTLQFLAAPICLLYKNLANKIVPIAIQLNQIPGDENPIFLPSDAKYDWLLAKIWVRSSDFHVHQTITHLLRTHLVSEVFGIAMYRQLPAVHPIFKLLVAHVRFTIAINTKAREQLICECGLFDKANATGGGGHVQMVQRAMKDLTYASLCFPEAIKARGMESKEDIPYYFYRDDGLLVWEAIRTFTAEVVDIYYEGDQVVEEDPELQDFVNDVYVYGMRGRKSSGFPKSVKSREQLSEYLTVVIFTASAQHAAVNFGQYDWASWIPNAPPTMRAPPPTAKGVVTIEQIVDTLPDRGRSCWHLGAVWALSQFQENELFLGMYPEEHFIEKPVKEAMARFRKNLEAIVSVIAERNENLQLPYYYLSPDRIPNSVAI
Kind of assay: IC50 determination against h5-LOX. In kind it is biochemical. The note with it: 10 μM AA, 50 mM HEPES pH 7.5, 200 µM ATP, ammonium-sulfate precipitate enzyme, 22 °C.

The target in assay [2] is T2, h15-LOX-1 (Homo sapiens, UniProt P16050).
T2 construct: His tag; made in house
T2 sequence (P16050 1-662): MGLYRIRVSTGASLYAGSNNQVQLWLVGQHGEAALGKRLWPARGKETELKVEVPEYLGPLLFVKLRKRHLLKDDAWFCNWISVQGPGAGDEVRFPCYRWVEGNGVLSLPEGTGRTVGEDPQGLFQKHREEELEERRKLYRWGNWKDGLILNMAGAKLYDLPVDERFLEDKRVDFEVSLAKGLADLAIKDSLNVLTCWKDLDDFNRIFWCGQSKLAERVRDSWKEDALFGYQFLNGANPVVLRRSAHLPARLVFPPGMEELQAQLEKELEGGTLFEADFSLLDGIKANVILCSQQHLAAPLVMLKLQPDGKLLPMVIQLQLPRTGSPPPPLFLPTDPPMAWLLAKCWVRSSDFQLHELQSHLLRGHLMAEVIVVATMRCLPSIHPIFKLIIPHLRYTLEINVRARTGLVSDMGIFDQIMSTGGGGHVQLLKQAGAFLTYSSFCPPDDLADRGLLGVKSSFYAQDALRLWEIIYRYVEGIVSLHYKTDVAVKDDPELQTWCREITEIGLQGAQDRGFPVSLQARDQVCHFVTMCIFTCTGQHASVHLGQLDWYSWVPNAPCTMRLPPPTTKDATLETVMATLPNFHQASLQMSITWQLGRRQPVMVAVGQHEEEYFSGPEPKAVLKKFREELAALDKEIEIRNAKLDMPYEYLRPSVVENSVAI
The experiment in a line: IC50 determination against h15-LOX-1. The note with it: 10 μM AA, 25 mM HEPES pH 7.5, 0.01% Triton X-100, 22 °C. In kind it is biochemical. Here is the method: Overexpression and purification of his-tagged wild-type h12-LOX (Uniprot entry P18054), h15-LOX-1 (Uniprot entry P16050), and h15-LOX-2 (Uniprot entry O15296) were performed using nickel-affinity chromatography. The purity of h12-LOX, h15-LOX-1, and h15-LOX-2 was assessed using SDS gel as greater than 85%, and metal content was assessed with a Finnigan inductively coupled plasma mass spectrometer (ICP-MS, Thermo Fischer Scientific, San Jose, USA) via comparison with iron standard solution. Cobalt-EDTA was used as an internal standard. WT h5-LOX (UniProt entry P09917) was expressed in Rosetta 2 cells (Novagen) transformed with the pET14b-Stable-5-LOX plasmid (a gift from Marcia Newcomer of Louisiana State University) and grown in Terrific Broth containing 34 μg/mL chloramphenicol and 100 μg/mL ampicillin at 37 °C for 3.5 h, then placed at 20 °C for an additional 26 h. Cells were pelleted and resuspended in 50 mM Tris (pH 8.0), 500 mM NaCl, 20 mM imidazole with 1 μM pepstatin, 100 μM PMSF, and DNaseI (Sigma, Kanagawa, Japan). The cells were lysed in a French pressure cell and centrifuged at 40,000× g for 20 min at 4 °C. Saturated ammonium sulfate was added to achieve a final solution of 10% and inverted several times. The lysate was centrifuged at 40,000× g for 10 min at 4 °C. The pellet was discarded, and the supernatant was increased to a final concentration of 50% ammonium sulfate. The supernatant was rotated for 10 min at 4 °C then centrifuged at 40,000× g for 10 min at 4 °C. The pellet was split into 150 mg aliquots. The WT h5-LOX used for the kinetics in this work was not purified due to a dramatic loss in activity and was therefore prepared as an ammonium-sulfate precipitate.
IC50 values for each acyl-CoA were measured against h5-LOX, h12-LOX, h15-LOX-1, and h15-LOX-2. The reactions were carried out in 25 mM HEPES buffer (pH 8.00), 0.01% Triton X-100, and 10 μM AA for h12-LOX; 25 mM HEPES buffer (pH 7.5), 0.01% Triton X-100, and 10 μM AA for h15-LOX-1 and h15-LOX-2; and 50 mM HEPES buffer (pH 7.5), 100 µM EDTA, 50 mM NaCl, 200 µM ATP, and 10 μM AA for h5-LOX. IC50 reactions were implemented with h15-LOX-1 (0.125 μM), h12-LOX (0.300 μM), h15-LOX-2 (0.5 μM), and h5-LOX (∼600 nM ammonium sulfate salt) at 22 °C in a 1 cm^2 quartz cuvette containing 2 mL of the according buffer and 10 μM AA for no longer than 2 min to avoid any cleavage of the acyl-coenzyme A. Inhibitor concentrations ranging from 50 μM to 0.01 μM were used. All reactions were conducted using a Cary-UV Vis spectrophotometer (Agilent, Santa Clara, CA, USA). The fastest rates over 15 s intervals were recorded. IC50 values were obtained by determining the percent of inhibition of the enzymatic rate at ten inhibitor concentrations and plotting the rate against the inhibitor concentration, followed by a hyperbolic saturation curve fit. The saturation curve fits were performed in duplicate or triplicate, depending on the quality of the data. […] Through HPLC monitoring, we were able to determine a lack of degradation of the fatty acyl-CoAs over the first hour.

Structures are written as SMILES. Bounds are passed on as bounds.

Consider `CCCCC/C=C\C/C=C\C/C=C\C/C=C\CCCC(=O)SCCNC(=O)CCNC(=O)[C@H](O)C(C)(C)COP(=O)(O)OP(=O)(O)OC[C@H]1O[C@@H](n2cnc3c(N)ncnc32)[C@H](O)[C@@H]1OP(=O)(O)O` [Arachidonoyl-CoA (20:4), arachidonoyl-coenzyme A (20:4)], for which the results for the IC50 in assay [1] and in assay [2] were more than 200 µM and more than 500 µM, respectively.

Turning to `CC/C=C\C/C=C\C/C=C\C/C=C\C/C=C\C/C=C\CCC(=O)SCCNC(=O)CCNC(=O)C(O)C(C)(C)COP(=O)(O)OP(=O)(O)OC[C@H]1O[C@@H](n2cnc3c(N)ncnc32)[C@H](O)[C@@H]1OP(=O)(O)O` (some centres unmarked) [Docosahexaenoyl CoA (22:6), docosahexaenoyl-coenzyme A (22:6)], the IC50 (as a rule, the midpoint of a concentration-inhibition curve) in assay [2] was more than 500 µM.

In turn, `CCCCC/C=C\C/C=C\CCCCCCCC(=O)SCCNC(=O)CCNC(=O)[C@H](O)C(C)(C)COP(=O)(O)OP(=O)(O)OC[C@H]1O[C@@H](n2cnc3c(N)ncnc32)[C@H](O)[C@@H]1OP(=O)(O)O` [Linoleoyl-CoA (18:2), linoleoyl-CoA] registered an IC50 in assay [1] of more than 100 µM.

On to `CCCCCCCC/C=C\CCCCCCCC(=O)SCCNC(=O)CCNC(=O)[C@H](O)C(C)(C)COP(=O)(O)OP(=O)(O)OC[C@H]1O[C@@H](n2cnc3c(N)ncnc32)[C@H](O)[C@@H]1OP(=O)(O)O` [Oleoyl-CoA (18:1), oleoyl-coenzyme A (18:1)], for which the IC50 in assay [1] was more than 50 µM; in assay [2] it was 39 ± 2 µM.

In the case of `CCCCCC/C=C\CCCCCCCC(=O)SCCNC(=O)CCNC(=O)[C@H](O)C(C)(C)COP(=O)(O)OP(=O)(O)OC[C@H]1O[C@@H](n2cnc3c(N)ncnc32)[C@H](O)[C@@H]1OP(=O)(O)O` [Palmitoleoyl-CoA (16:1), palmitoleoyl-coenzyme A (16:1)], the IC50 in assay [1] was 2 ± 0.4 µM; in assay [2], more than 500 µM.

With `CCCCCCCCCCCCCCCC(=O)SCCNC(=O)CCNC(=O)[C@H](O)C(C)(C)COP(=O)(O)OP(=O)(O)OC[C@H]1O[C@@H](n2cnc3c(N)ncnc32)[C@H](O)[C@@H]1OP(=O)(O)O` [Palmitoyl-CoA (16:0), palmitoyl-coenzyme A (16:0)], the IC50 in assay [1] was 3.3 ± 0.3 µM; in assay [2] it was more than 500 µM.

For `CCCCCCCCCCCCCCCCCC(=O)SCCNC(=O)CCNC(=O)[C@H](O)C(C)(C)COP(=O)(O)OP(=O)(O)OC[C@H]1O[C@@H](n2cnc3c(N)ncnc32)[C@H](O)[C@@H]1OP(=O)(O)O` [Stearoyl-CoA (18:0), stearoyl-coenzyme A (18:0)], the figures for the IC50 in assay [1] and in assay [2] were more than 50 µM and 4.2 ± 0.6 µM, respectively.

As for `CCCCC/C=C\C/C=C\C/C=C\CCCCC(=O)SCCNC(=O)CCNC(=O)[C@H](O)C(C)(C)COP(=O)(O)OP(=O)(O)OC[C@H]1O[C@@H](n2cnc3c(N)ncnc32)[C@H](O)[C@@H]1OP(=O)(O)O` [ɣ-Linolenoyl-CoA (18:3), ɣ-linolenoyl-coenzyme A (18:3)], the IC50 in assay [1] and in assay [2] was more than 500 µM throughout.

(Values after article PMC10341549, “Inhibitory Investigations of Acyl-CoA Derivatives against Human Lipoxygenase Isozymes” (International Journal of Molecular Sciences, 2023).)
